In ChEMBL document CHEMBL1287680, “C-11 diamino cryptolepine derivatives NSC748392, NSC748393, and NSC748394: anticancer profile and G-quadruplex stabilization” (Bioorg Med Chem Lett, 2010):

Columns and labels:
SK-OV-3 = test: cells; conditions: Homo sapiens
Description: Anticancer activity against human SKOV3 cells

SR = test: cells; conditions: Homo sapiens
Description: Anticancer activity against human SR cells

Malme-3M = test: cells; conditions: Homo sapiens
Description: Anticancer activity against human MALME-3M cells

KM12 = test: cells; conditions: Homo sapiens
Description: Anticancer activity against human KM12 cells

EKVX = test: cells; conditions: Homo sapiens
Description: Anticancer activity against human EKVX cells

NCI-H322M = test: cells; conditions: Homo sapiens
Description: Anticancer activity against human NCI-H322M cells

SN12C = test: cells; conditions: Homo sapiens
Description: Anticancer activity against human SN12C cells

DU-145 = test: cells; conditions: Homo sapiens
Description: Anticancer activity against human DU145 cells

UACC-257 = test: cells; conditions: Homo sapiens
Description: Anticancer activity against human UACC257 cells

MDA-MB-468 = test: cells; conditions: Homo sapiens
Description: Anticancer activity against human MDA-MB-468 cells

Vero = test: cells; conditions: Chlorocebus sabaeus, 48 h
Description: Cytotoxicity against african green monkey Vero cells after 48 hrs by MTT assay

OVCAR-3 = test: cells; conditions: Homo sapiens
Description: Anticancer activity against human OVCAR-3 cells

786-0 = test: cells; conditions: Homo sapiens
Description: Anticancer activity against human 786-0 cells

NCI-H522 = test: cells; conditions: Homo sapiens
Description: Anticancer activity against human NCI-H522 cells

in vivo = conditions: mouse, cancer cell lines
Description: Toxicity in cancer cells containing hollow fiber implanted mouse

SW-620 = test: cells; conditions: Homo sapiens
Description: Anticancer activity against human SW620 cells

COLO 205 = test: cells; conditions: Homo sapiens
Description: Anticancer activity against human COLO205 cells

SNB-19 = test: cells; conditions: Homo sapiens
Description: Anticancer activity against human SNB19 cells

Nucleic Acid = conditions: Homo sapiens
Description: Binding affinity to human G-quadruplex DNA assessed as change in melting temperature by FRET-melting assay

SF-539 = test: cells; conditions: Homo sapiens
Description: Anticancer activity against human SF539 cells

cells = conditions: Homo sapiens, Hs-578T
Description: Anticancer activity against human Hs 578T cells

CAKI-1 = test: cells; conditions: Homo sapiens
Description: Anticancer activity against human Caki1 cells

TK-10 = test: cells; conditions: Homo sapiens
Description: Anticancer activity against human TK10 cells

PC-3 = test: cells; conditions: Homo sapiens
Description: Anticancer activity against human PC3 cells

M14 = test: cells; conditions: Homo sapiens
Description: Anticancer activity against human M14 cells

SK-MEL-5 = test: cells; conditions: Homo sapiens
Description: Anticancer activity against human SK-MEL-5 cells

BT-549 = test: cells; conditions: Homo sapiens
Description: Anticancer activity against human BT549 cells

ACHN = test: cells; conditions: Homo sapiens
Description: Anticancer activity against human ACHN cells

OVCAR-4 = test: cells; conditions: Homo sapiens
Description: Anticancer activity against human OVCAR4 cells

HL-60(TB) = test: cells; conditions: Homo sapiens
Description: Anticancer activity against human HL-60(TB) cells

MOLT-4 = test: cells; conditions: Homo sapiens
Description: Anticancer activity against human MOLT4 cells

RXF 393 = test: cells; conditions: Homo sapiens
Description: Anticancer activity against human RXF393 cells

UACC-62 = test: cells; conditions: Homo sapiens
Description: Anticancer activity against human UACC62 cells

CCRF-CEM = test: cells; conditions: Homo sapiens
Description: Anticancer activity against human CCRF-CEM cells

Description for physchem: Dissociation constant, pKa of the compound by UV-visible spectroscopy

## C[n+]1c2ccccc2c(NC2CCNCC2)c2[nH]c3ccccc3c21.[Cl-]
SK-OV-3; SK-OV-3, read-out: pGI50 (converted)
  GI50: 0.447 µM
SK-OV-3; SK-OV-3, read-out: pLC50 (converted)
  CC50: 77.6 µM
SK-OV-3; SK-OV-3, read-out: pTGI
  TGI: 3.89 µM
SR; read-out: pGI50 (converted)
  GI50: 1.7 µM
SR; read-out: pLC50 (converted)
  CC50: > 100 µM
SR; read-out: pTGI
  TGI: > 100 µM
Malme-3M; read-out: pGI50 (converted)
  GI50: 1.55 µM
Malme-3M; read-out: pLC50 (converted)
  CC50: 20 µM
Malme-3M; read-out: pTGI
  TGI: 4.37 µM
KM12; KM12, read-out: pGI50 (converted)
  GI50: 0.708 µM
KM12; KM12, read-out: pLC50 (converted)
  CC50: > 100 µM
KM12; KM12, read-out: pTGI
  TGI: 10 µM
EKVX; read-out: pGI50 (converted)
  GI50: 0.525 µM
EKVX; read-out: pLC50 (converted)
  CC50: > 100 µM
EKVX; read-out: pTGI
  TGI: 8.32 µM
NCI-H322M; read-out: pGI50 (converted)
  GI50: 0.372 µM
NCI-H322M; read-out: pLC50 (converted)
  CC50: > 100 µM
NCI-H322M; read-out: pTGI
  TGI: 12 µM
SN12C; read-out: pGI50 (converted)
  GI50: 0.0295 µM
SN12C; read-out: pLC50 (converted)
  CC50: > 100 µM
SN12C; read-out: pTGI
  TGI: 0.316 µM
DU-145; DU-145, read-out: pGI50 (converted)
  GI50: 0.204 µM
DU-145; DU-145, read-out: pLC50 (converted)
  CC50: > 100 µM
DU-145; DU-145, read-out: pTGI
  TGI: 10.2 µM
UACC-257; UACC-257, read-out: pGI50 (converted)
  GI50: 5.37 µM
UACC-257; UACC-257, read-out: pLC50 (converted)
  CC50: 81.3 µM
UACC-257; UACC-257, read-out: pTGI
  TGI: 24 µM
MDA-MB-468; MDA-MB-468, read-out: pGI50 (converted)
  GI50: 0.234 µM
MDA-MB-468; MDA-MB-468, read-out: pLC50 (converted)
  CC50: 6.92 µM
MDA-MB-468; MDA-MB-468, read-out: pTGI
  TGI: 1.58 µM
Vero
  IC50: 10 µM
OVCAR-3; OVCAR-3, read-out: pGI50 (converted)
  GI50: 1.45 µM
OVCAR-3; OVCAR-3, read-out: pLC50 (converted)
  CC50: 95.5 µM
OVCAR-3; OVCAR-3, read-out: pTGI
  TGI: 9.55 µM
786-0; 786-0, read-out: pGI50 (converted)
  GI50: 3.47 µM
786-0; 786-0, read-out: pLC50 (converted)
  CC50: > 100 µM
786-0; 786-0, read-out: pTGI
  TGI: 18.2 µM
NCI-H522; NCI-H522, read-out: pGI50 (converted)
  GI50: 0.123 µM
NCI-H522; NCI-H522, read-out: pLC50 (converted)
  CC50: 3.31 µM
NCI-H522; NCI-H522, read-out: pTGI
  TGI: 0.692 µM
physchem
  pKa: 11.8
In vivo
  MTD: 25 mg/kg
SW-620; SW-620, read-out: pGI50 (converted)
  GI50: 1.45 µM
SW-620; SW-620, read-out: pLC50 (converted)
  CC50: > 100 µM
SW-620; SW-620, read-out: pTGI
  TGI: 10.7 µM
COLO 205; COLO 205, read-out: pGI50 (converted)
  GI50: 0.339 µM
COLO 205; COLO 205, read-out: pLC50 (converted)
  CC50: 14.5 µM
COLO 205; COLO 205, read-out: pTGI
  TGI: 2.4 µM
SNB-19; SNB-19, read-out: pGI50 (converted)
  GI50: 0.275 µM
SNB-19; SNB-19, read-out: pLC50 (converted)
  CC50: > 100 µM
SNB-19; SNB-19, read-out: pTGI
  TGI: 2.57 µM
Nucleic Acid
  ΔTm: 19.9 °C
SF-539; SF-539, read-out: pGI50 (converted)
  GI50: 1.66 µM
SF-539; SF-539, read-out: pLC50 (converted)
  CC50: 28.8 µM
SF-539; SF-539, read-out: pTGI
  TGI: 7.41 µM
cells; read-out: pGI50 (converted)
  GI50: 0.12 µM
cells; read-out: pLC50 (converted)
  CC50: 44.7 µM
cells; read-out: pTGI
  TGI: 1.12 µM
CAKI-1; CAKI-1, read-out: pGI50 (converted)
  GI50: 15.1 µM
CAKI-1; CAKI-1, read-out: pLC50 (converted)
  CC50: > 100 µM
CAKI-1; CAKI-1, read-out: pTGI
  TGI: 60.3 µM
TK-10; TK-10, read-out: pGI50 (converted)
  GI50: 3.09 µM
TK-10; TK-10, read-out: pLC50 (converted)
  CC50: > 100 µM
TK-10; TK-10, read-out: pTGI
  TGI: 14.5 µM
PC-3; PC-3, read-out: pGI50 (converted)
  GI50: 1.95 µM
PC-3; PC-3, read-out: pLC50 (converted)
  CC50: 97.7 µM
PC-3; PC-3, read-out: pTGI
  TGI: 10.5 µM
M14; M14, read-out: pGI50 (converted)
  GI50: 3.16 µM
M14; M14, read-out: pLC50 (converted)
  CC50: 43.7 µM
M14; M14, read-out: pTGI
  TGI: 15.1 µM
SK-MEL-5; SK-MEL-5, read-out: pGI50 (converted)
  GI50: 0.302 µM
SK-MEL-5; SK-MEL-5, read-out: pLC50 (converted)
  CC50: 4.68 µM
SK-MEL-5; SK-MEL-5, read-out: pTGI
  TGI: 1.32 µM
BT-549; BT-549, read-out: pGI50 (converted)
  GI50: 2.75 µM
BT-549; BT-549, read-out: pLC50 (converted)
  CC50: 57.5 µM
BT-549; BT-549, read-out: pTGI
  TGI: 16.6 µM
ACHN; read-out: pGI50 (converted)
  GI50: 11.5 µM
ACHN; read-out: pLC50 (converted)
  CC50: > 100 µM
ACHN; read-out: pTGI
  TGI: 64.6 µM
OVCAR-4; OVCAR-4, read-out: pGI50 (converted)
  GI50: 0.316 µM
OVCAR-4; OVCAR-4, read-out: pLC50 (converted)
  CC50: 36.3 µM
OVCAR-4; OVCAR-4, read-out: pTGI
  TGI: 3.8 µM
HL-60(TB); HL-60, read-out: pGI50 (converted)
  GI50: 2.19 µM
HL-60(TB); HL-60, read-out: pLC50 (converted)
  CC50: > 100 µM
HL-60(TB); HL-60, read-out: pTGI
  TGI: > 100 µM
MOLT-4; MOLT-4, read-out: pGI50 (converted)
  GI50: 0.138 µM
MOLT-4; MOLT-4, read-out: pLC50 (converted)
  CC50: > 100 µM
MOLT-4; MOLT-4, read-out: pTGI
  TGI: > 100 µM
RXF 393; RXF 393, read-out: pGI50 (converted)
  GI50: 1.62 µM
RXF 393; RXF 393, read-out: pLC50 (converted)
  CC50: 26.3 µM
RXF 393; RXF 393, read-out: pTGI
  TGI: 4.9 µM
UACC-62; UACC-62, read-out: pGI50 (converted)
  GI50: 0.2 µM
UACC-62; UACC-62, read-out: pLC50 (converted)
  CC50: 3.63 µM
UACC-62; UACC-62, read-out: pTGI
  TGI: 0.933 µM
CCRF-CEM; read-out: pGI50 (converted)
  GI50: 0.457 µM
CCRF-CEM; read-out: pLC50 (converted)
  CC50: 52.5 µM
CCRF-CEM; read-out: pTGI
  TGI: 3.02 µM
